# Reference: US9365830B2, “Agents and methods for inhibiting human pluripotent stem cell growth” (VIACYTE, INC., priority 2010, dated 2016)
# Where a name gives a salt, the structure may show the parent alone. Read-outs that look alike come from different tables or passages of the source.
# Columns and labels:
# Format in all cases: cell-based, human
# hESCs = test: Secondary screen, lowest effective dose on hESCs; conditions: lowest concentration that elicited cytotoxicity, range 0.1 to 50 μM, read-out: ED hESC (lowest effective dose)
# Protocol: To expand the number of potential candidate hESC cytotoxic and inhibitory compounds, the complete LOPAC1280™ collection (containing 1,280 compounds) was screened. In the primary screen, cytotoxicity was tested on undifferentiated hESCs (about 3×10^4 BG01 cells) in 16 standard 96-well trays, in DC-HAIF defined medium on growth factor-reduced MATRIGEL™ diluted 1:200, which were fed daily (FIG. 7A). 10 μM of each compound was added to the hESCs one day after plating, and the cells were cultured for an additional 2 days. Plates were then fixed and stained for alkaline phosphatase (AP) to identify relative decreases in proliferation or growth of hESCs (as reduced AP staining), indicative of lower proportions of hESCs. See the circled wells in FIG. 7A.
# (§1) Using a range of different concentrations from 0.1 to 50 μM, the forty compounds in Table 6 were re-screened (secondary screen) using hESCS and NPCs. The effective dose (ED) was defined as the lowest concentration of a compound that elicited cytotoxicity during the secondary screen. […] The darker wells were indicative of the increased numbers or percentages of proliferating or growing pluripotent stem cells in the wells. In addition, these 40 compounds were screened on differentiating definitive endoderm (DE) cell cultures in 96-well plate impedance assays (described above) to determine which of these compounds were not cytotoxic to definitive endoderm cells at the lowest effective dose on either hESC or NPC. […] See “ACEA DE” column in Table 6.
# NPCs = test: Secondary screen, lowest effective dose on NPCs; conditions: lowest concentration that elicited cytotoxicity, range 0.1 to 50 μM, read-out: ED NPC (lowest effective dose)
# Protocol: In addition, the complete LOPAC1280™ collection was also screened for effects on neural progenitor cells (NPCs) that were derived from the hESCs. Neural progenitors were plated in serum-free MedII conditioned medium at 6×10^4 cells/well and fed daily. Two days after plating, 10 μM of each compound was added and the cells were cultured for an additional 2 days. […] Reduced crystal violet staining was indicative of lower proportions of NPCs. See circled wells in FIG. 7B. The left and right columns of the LOPAC1280™ plates from which the compounds were dispensed were empty and served as untreated controls. […] See Table 6 below listing the name and class of activity of each candidate compound identified in this screen (except chelerythrine chloride, which is listed in Table 5). ChCl was not included in the subsequent round of screening. Therefore only 40 compounds were tested further.
# as §1
# [1] = test system: differentiating definitive endoderm (DE) cell cultures; test: 96-well plate impedance assay (ACEA) on differentiating definitive endoderm at lowest effective dose; design: key: Viable: Compounds that did not appear to be cytotoxic toward differentiating DE cultures were marked as “viable”, meaning that the compound did not affect the survival, growth, proliferation or differentiation of the differentiated cells; conditions: at the lowest effective dose on either hESC or NPC
# Text: The impedance assay on the hESCs using the compounds in Table 4 above gave greater than twenty (20) hits. However, the ideal candidate compound of the present invention should not only be inhibitory or cytotoxic to human pluripotent stem cells, such as hESCs or hIPSCs, but should at the same time have no effect on cell viability of differentiated or differentiating cell populations including Stage 1, 2, 3, 4 and 5 type cells cultures (definitive endoderm, foregut endoderm, posterior foregut, pancreatic endoderm and endocrine cells, respectively). […] Approximately 3×10^4 hES cells were plated per well and grown for 24 hrs in DC-HAIF defined medium (i.e. StemPro® hESC SFM medium (Life Technologies, Carlsbad, Calif.). Stage 1 or definitive endoderm differentiation was then induced by changing the medium and culturing in RPMI, 100 ng/mL Activin A, and 10 ng/mL of FGF2. […] of GSK-3 beta Inhibitor 15 (Calbiochem #361558) as added to the culture for the first 24 hours of differentiation only. 10 μM of each of the candidate compounds were added about 48 hours or 2 days after differentiation was induced (see FIGS. 3 C & D, large arrowhead), and the cells were cultured for an additional 2 days.
# as §1
Molecule,minimal effective concentration (hESCs) [µM],minimal effective concentration (NPCs) [µM],ACEA DE [1],minimal effective concentration (hESCs; Homo sapiens) [µM],"minimal effective concentration (NPCs; Homo sapiens, 48 h) [µM]"
COc1cc2c(cc1O)CC[C@@H]1[C@@H]2CC[C@]2(C)[C@@H](O)CC[C@@H]12 [2-methoxyestradiol],10,1,,,
"Oc1cc(-c2ccccc2)nc2nc(Cl)ccc12 [7-Chloro-4-hydroxy-2-phenyl-1,8-naphthyridine]",,,Viable,5,5
CC[n+]1c(/C=C/C=C2/N(C)c3ccccc3C2(C)C)sc2ccccc21.[I-] [AC-93253 iodide],5,<0.1,,,
N [Ammonium],10,>50,Viable,,
COc1cc(NS(C)(=O)=O)ccc1Nc1c2ccccc2nc2ccccc12 [Amsacrine hydrochloride],,,,1,0.1
C[C@H]1CCC/C=C/[C@@H]2C[C@H](O)C[C@H]2[C@H](O)/C=C/C(=O)O1 [Brefeldin A from Penicillium],<0.1,<0.1,,,
O=C(/C=C/c1ccc(O)c(O)c1)OCCc1ccccc1 [Caffeic acid phenethyl ester],,,Viable,< 0.1,5
CNc1ccc2oc(C[C@H]3O[C@@]4(CC[C@H]3C)O[C@H]([C@H](C)C(=O)c3ccc[nH]3)[C@H](C)C[C@H]4C)nc2c1C(=O)O [Calcimycin],,,,1,< 0.1
Clc1ccc(C(c2ccc(Cl)cc2)n2cc[n+](CC(OCc3ccc(Cl)cc3Cl)c3ccc(Cl)cc3Cl)c2)cc1 (stereo not drawn) [Calmidazolium chloride],,,Viable,5,5
Oc1cc2c(cc1O)CN(C(=S)NCCc1ccc(Cl)cc1)CCC2 [Capsazepine],,,Viable,5,25
Cc1cc(N)c2ccccc2[n+]1CCCCCCCCCC[n+]1c(C)cc(N)c2ccccc21 [Dequalinium chloride hydrate],,,,5,5
C[C@@H]1O[C@@H](O[C@H]2C[C@@H](O)[C@]3(CO)[C@H]4[C@H](O)C[C@]5(C)[C@@H]([C@@H]6COC(=O)C6)CC[C@]5(O)[C@@H]4CC[C@]3(O)C2)[C@H](O)[C@H](O)[C@H]1O [Dihydroouabain],1,<0.1,,,
c1ccc2c(c1)[I+]c1ccccc1-2 [Diphenyleneiodonium chloride],,,,0.1,< 0.1
O=c1[nH]c2ccccc2n1CCCN1CCC(n2c(=O)[nH]c3cc(Cl)ccc32)CC1 [Domperidone],,,Viable,25,0.1
CC[C@H]1CN2CCc3cc(OC)c(OC)cc3[C@@H]2C[C@@H]1C[C@H]1NCCc2cc(OC)c(OC)cc21 [Emetine dihydrochloride hydrate],,,,< 0.1,0.1
CNC(=O)[C@H]1O[C@@H](n2cnc3c(NCc4cccc(I)c4)ncnc32)[C@H](O)[C@@H]1O [IB-MECA],50,>50,,,
"Ic1ccccc1CNC1C2CCN(CC2)C1C(c1ccccc1)c1ccccc1.O=C(O)C(=O)O [L-703,606 oxalate]",25,>50,,,
COC(=O)C1=C(C)NC(C)=C(C(=O)OC(C)(C)CN(C)CCC(c2ccccc2)c2ccccc2)C1c1cccc([N+](=O)[O-])c1 (stereo not drawn) [Lercanidipine hydrochloride],,,,10,10

Molecule,minimal effective concentration (hESCs) [µM],minimal effective concentration (NPCs) [µM],ACEA DE [1],minimal effective concentration (hESCs; Homo sapiens) [µM],"minimal effective concentration (NPCs; Homo sapiens, 48 h) [µM]"
CC[N+](CC)(CC)CCOc1ccc(/C=C/c2ccccc2)cc1 [MG 624],,,Viable,0.1,5
COCC(=O)O[C@]1(CCN(C)CCCc2nc3ccccc3[nH]2)CCc2cc(F)ccc2[C@@H]1C(C)C [Mibefradil dihydrochloride],,,,25,25
CCCCCCCC/C=C\CCCCCCCC(=O)NCCc1ccc(O)c(O)c1 [N-Oleoyldopamine],,,Viable,5,1
CC(C)[C@H]1c2ccc(F)cc2CC[C@@]1(CCN(C)CCCc1nc2ccccc2[nH]1)OC(=O)C1CC1 [NNC 55-0396],25,5,,,
C[C@@H]1O[C@@H](O[C@H]2C[C@@H](O)[C@]3(CO)[C@H]4[C@H](O)C[C@]5(C)[C@@H](C6=CC(=O)OC6)CC[C@]5(O)[C@@H]4CC[C@]3(O)C2)[C@H](O)[C@H](O)[C@H]1O [Ouabain],,,,< 0.1,< 0.1
Nc1ccc(CCN2CCN(c3cccc(C(F)(F)F)c3)CC2)cc1 [PAPP],25,>50,,,
N=C(N)c1ccc(OCCCCCOc2ccc(C(=N)N)cc2)cc1 [Pentamidine isethionate],,,Viable,1,25
COc1cc([C@@H]2c3cc4c(cc3[C@H](O)[C@H]3COC(=O)[C@H]23)OCO4)cc(OC)c1OC [Podophyllotoxin],,,Viable,< 0.1,
C=CC1=C(C)c2cc3[nH]c(cc4nc(cc5[nH]c(cc1n2)c(C)c5CCC(=O)O)C(CCC(=O)O)=C4C)c(C)c3C=C [Protoporphyrin IX disodium],,,Viable,10,> 50
Oc1ccccc1O [Pyrocatechol],,,Viable,5,5
CCN(CC)CCCC(C)Nc1c2ccc(Cl)cc2nc2ccc(OC)cc12 (stereo not drawn) [Quinacrine dihydrochloride],,,Viable,10,25
CC1=C(/C=C/C(C)=C/C=C/C(C)=C/C(=O)Nc2ccc(O)cc2)C(C)(C)CCC1 [Retinoic acid p-hydroxyanilide],1,5,Viable,,
Cc1nc(-c2ccc(-c3ccc(C(=O)N4CCc5cc6c(cc54)C4(CCN(C)CC4)CO6)cc3)c(C)c2)no1 [SB 224289 hydrochloride],,,,25,50
COc1ccc(CCCOC(Cn2ccnc2)c2ccc(OC)cc2)cc1 (stereo not drawn) [SKF 96365],,,Viable,25,5
CC(C)(C)c1ccc(C(O)CCCN2CCC(C(O)(c3ccccc3)c3ccccc3)CC2)cc1 (stereo not drawn) [Terfenadine],,,,25,10
COc1ccc2c(c1)CC[C@@H]1[C@@H]2CC[C@]2(C)[C@@H](NCCCCCCN3C(=O)CCC3=O)CC[C@@H]12 [U-73343],10,5,Viable,,
CC1(C)CCC2=C(O1)c1ccccc1C(=O)C2=O [beta-Lapachone],,,,5,5
Vinblastine sulfate salt,<0.1,<0.1,,,
